Data: patent US10479784B2, “Substituted pyrazin-2-amines as inhibitors of ATR kinase” (Vertex Pharmaceuticals Incorporated, priority 2008, dated 2019)

target: full-length ATR (Homo sapiens (Human), UniProt Q13535); test: ATR Inhibition Assay (radioactive-phosphate incorporation); assay type: biochemical; settings: read-out: ATR Ki
Procedure: Compounds were screened for their ability to inhibit ATR kinase using a radioactive-phosphate incorporation assay. Assays were carried out in a mixture of 50 mM Tris/HCl (pH 7.5), 10 mM MgCl2 and 1 mM DTT. Final substrate concentrations were […] [γ-33P]ATP (3mCi 33P ATP/mmol ATP, Perkin Elmer) and 800 μM target peptide ([…]).
Assays were carried out at 25° C. in the presence of 5 nM full-length ATR. An assay stock buffer solution was prepared containing all of the reagents listed above, with the exception of ATP and the test compound of interest. […] The plate was pre-incubated for 10 minutes at 25° C. and the reaction initiated by addition of 15 μL [γ-33P]ATP (final concentration 10 μM).
The reaction was stopped after […] by the addition of 30 μL 0.1M phosphoric acid containing 2 mM ATP. A multiscreen phosphocellulose filter 96-well plate (Millipore, Cat no. MAPHN0B50) was pretreated with 100 μL 0.2M phosphoric acid prior to the addition of 45 μL of the stopped assay mixture. […] After drying, 100 μL Optiphase ‘SuperMix’ liquid scintillation cocktail (Perkin Elmer) was added to the well prior to scintillation counting (1450 Microbeta Liquid Scintillation Counter, Wallac).
After removing mean background values for all of the data points, Ki(app) data were calculated from non-linear regression analysis of the initial rate data using the Prism software package (GraphPad Prism version 3.0cx for Macintosh, GraphPad Software, San Diego Calif., USA).

Chain of full-length ATR (Q13535 whole entry): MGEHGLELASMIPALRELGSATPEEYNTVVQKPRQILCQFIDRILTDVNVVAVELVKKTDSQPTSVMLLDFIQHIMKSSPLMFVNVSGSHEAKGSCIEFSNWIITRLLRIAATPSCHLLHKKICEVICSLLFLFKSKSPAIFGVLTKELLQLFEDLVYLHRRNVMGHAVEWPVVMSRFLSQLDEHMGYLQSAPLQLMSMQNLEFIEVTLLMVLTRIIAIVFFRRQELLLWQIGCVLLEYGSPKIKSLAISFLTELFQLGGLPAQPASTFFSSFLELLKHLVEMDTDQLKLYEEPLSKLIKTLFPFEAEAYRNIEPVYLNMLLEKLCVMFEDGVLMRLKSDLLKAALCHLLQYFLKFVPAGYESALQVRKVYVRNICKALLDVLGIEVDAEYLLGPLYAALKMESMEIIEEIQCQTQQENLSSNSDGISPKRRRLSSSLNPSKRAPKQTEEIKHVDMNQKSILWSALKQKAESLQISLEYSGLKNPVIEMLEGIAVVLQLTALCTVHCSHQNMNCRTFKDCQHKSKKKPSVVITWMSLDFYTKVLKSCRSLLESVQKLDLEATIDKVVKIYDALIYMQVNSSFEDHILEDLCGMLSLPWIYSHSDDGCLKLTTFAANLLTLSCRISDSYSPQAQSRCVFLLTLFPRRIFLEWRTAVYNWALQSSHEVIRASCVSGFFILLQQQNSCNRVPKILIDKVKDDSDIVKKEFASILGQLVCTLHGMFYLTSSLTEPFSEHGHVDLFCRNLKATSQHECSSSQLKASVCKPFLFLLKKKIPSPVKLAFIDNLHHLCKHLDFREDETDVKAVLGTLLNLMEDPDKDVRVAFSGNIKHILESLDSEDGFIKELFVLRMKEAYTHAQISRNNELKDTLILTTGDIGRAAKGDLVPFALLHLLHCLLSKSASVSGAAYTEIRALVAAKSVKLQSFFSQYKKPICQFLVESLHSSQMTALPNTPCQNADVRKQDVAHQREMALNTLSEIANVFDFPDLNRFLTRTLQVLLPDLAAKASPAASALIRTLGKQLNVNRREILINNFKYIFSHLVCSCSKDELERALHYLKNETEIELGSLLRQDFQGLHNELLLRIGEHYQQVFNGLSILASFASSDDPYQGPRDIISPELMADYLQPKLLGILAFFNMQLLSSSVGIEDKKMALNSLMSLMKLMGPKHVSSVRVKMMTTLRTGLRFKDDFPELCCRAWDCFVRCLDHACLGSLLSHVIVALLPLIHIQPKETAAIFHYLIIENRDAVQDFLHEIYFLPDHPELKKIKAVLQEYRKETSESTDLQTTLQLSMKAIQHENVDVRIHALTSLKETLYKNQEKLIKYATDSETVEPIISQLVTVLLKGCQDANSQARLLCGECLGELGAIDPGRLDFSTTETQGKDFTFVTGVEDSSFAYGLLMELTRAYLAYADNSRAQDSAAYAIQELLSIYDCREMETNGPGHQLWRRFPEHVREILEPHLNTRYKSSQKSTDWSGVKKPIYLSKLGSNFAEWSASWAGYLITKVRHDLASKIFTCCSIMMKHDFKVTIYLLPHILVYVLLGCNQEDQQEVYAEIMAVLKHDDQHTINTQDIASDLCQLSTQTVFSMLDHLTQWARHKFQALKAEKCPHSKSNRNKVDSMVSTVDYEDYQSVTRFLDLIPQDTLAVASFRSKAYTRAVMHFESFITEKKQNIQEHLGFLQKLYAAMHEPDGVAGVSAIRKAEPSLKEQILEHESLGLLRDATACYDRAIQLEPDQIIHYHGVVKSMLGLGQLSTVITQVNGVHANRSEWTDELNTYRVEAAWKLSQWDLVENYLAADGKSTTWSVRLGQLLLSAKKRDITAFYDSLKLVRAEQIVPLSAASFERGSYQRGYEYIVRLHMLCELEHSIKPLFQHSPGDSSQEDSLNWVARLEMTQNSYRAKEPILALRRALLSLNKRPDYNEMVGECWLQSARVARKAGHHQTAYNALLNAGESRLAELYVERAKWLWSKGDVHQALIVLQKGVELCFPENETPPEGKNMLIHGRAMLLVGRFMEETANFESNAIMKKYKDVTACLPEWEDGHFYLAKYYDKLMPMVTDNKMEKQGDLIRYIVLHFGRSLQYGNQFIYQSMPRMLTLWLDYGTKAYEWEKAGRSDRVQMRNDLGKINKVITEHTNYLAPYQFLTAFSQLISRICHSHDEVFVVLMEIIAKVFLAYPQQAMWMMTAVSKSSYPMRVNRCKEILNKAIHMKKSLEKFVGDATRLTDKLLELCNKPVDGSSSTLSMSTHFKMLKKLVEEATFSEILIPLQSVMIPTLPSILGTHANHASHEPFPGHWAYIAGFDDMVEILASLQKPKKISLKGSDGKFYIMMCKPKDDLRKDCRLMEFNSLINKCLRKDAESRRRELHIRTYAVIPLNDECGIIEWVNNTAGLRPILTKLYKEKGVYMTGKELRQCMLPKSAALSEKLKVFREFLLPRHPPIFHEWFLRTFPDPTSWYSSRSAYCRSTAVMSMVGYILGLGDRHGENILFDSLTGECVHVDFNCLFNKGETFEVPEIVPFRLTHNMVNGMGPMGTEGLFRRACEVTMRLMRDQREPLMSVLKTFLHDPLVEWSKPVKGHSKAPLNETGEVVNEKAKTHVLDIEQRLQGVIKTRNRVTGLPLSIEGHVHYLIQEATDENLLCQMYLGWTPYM

SMILES | Ki [µM]
COc1ccc(-c2cnc(N)c(C(=O)Nc3ccccc3)n2)cc1 [Compound I-1, 3-amino-6-(4-methoxyphenyl)-N-phenylpyrazine-2-carboxamide] | 0.1 to 5
CS(=O)(=O)c1cccc(-c2cnc(N)c(C(=O)Nc3ccccc3)n2)c1 [Compound I-3] | 0.1 to 5
Nc1ncc(-c2ccc(F)cc2)nc1C(=O)Nc1ccccc1 [Compound I-4, 3-amino-6-(4-fluorophenyl)-N-phenylpyrazine-2-carboxamide] | 0.1 to 5
CS(=O)(=O)Nc1ccc(-c2cnc(N)c(C(=O)Nc3ccccc3)n2)cc1 [Compound I-5, 3-amino-6-(4-(methylsulfonamido)phenyl)-N-phenylpyrazine-2-carboxamide] | 0.01 to 0.1
Nc1ncc(-c2ccccc2C(F)(F)F)nc1C(=O)Nc1ccccc1 [Compound I-6, 3-amino-N-phenyl-6-(2-(trifluoromethyl)phenyl)pyrazine-2-carboxamide] | 0.1 to 5
Nc1ncc(-c2cccc(C(=O)O)c2)nc1C(=O)Nc1ccccc1 [Compound I-8, 3-(5-amino-6-(phenylcarbamoyl)pyrazin-2-yl)benzoic acid] | 0.1 to 5
Nc1ncc(-c2cccc(F)c2)nc1C(=O)Nc1ccccc1 [Compound I-9, 3-amino-6-(3-fluorophenyl)-N-phenylpyrazine-2-carboxamide] | 0.1 to 5
Nc1ncc(-c2ccc(N3CCOCC3)cc2)nc1C(=O)Nc1ccccc1 [Compound I-13, 3-amino-6-(4-morpholinophenyl)-N-phenylpyrazine-2-carboxamide] | 0.1 to 5
Nc1ncc(-c2ccc(CO)cc2)nc1C(=O)Nc1ccccc1 [Compound I-16, 3-amino-6-(4-(hydroxymethyl)phenyl)-N-phenylpyrazine-2-carboxamide] | 0.1 to 5
N#Cc1ccc(-c2cnc(N)c(C(=O)Nc3ccccc3)n2)cc1 [Compound I-21, 3-amino-6-(4-cyanophenyl)-N-phenylpyrazine-2-carboxamide] | 0.01 to 0.1
Nc1ncc(-c2ccc(C(=O)CN3CCC(O)CC3)cc2)nc1C(=O)Nc1ccccc1 [Compound I-23, 3-amino-6-(4-(2-(4-hydroxypiperidin-1-yl)acetyl)phenyl)-N-phenylpyrazine-2-carboxamide] | 0.01 to 0.1
COc1ccccc1NC(=O)c1nc(-c2ccc3[nH]ccc3c2)cnc1N [Compound I-29, 3-amino-6-(1H-indol-5-yl)-N-(2-methoxyphenyl)pyrazine-2-carboxamide] | 0.01 to 0.1
COc1ccccc1NC(=O)c1nc(-c2ccco2)cnc1N [Compound I-30, 3-amino-6-(furan-2-yl)-N-(2-methoxyphenyl)pyrazine-2-carboxamide] | 0.01 to 0.1
Nc1ncc(-c2ccc(O)nc2)nc1C(=O)Nc1ccccc1 [Compound I-32, 3-amino-6-(6-hydroxypyridin-3-yl)-N-phenylpyrazine-2-carboxamide] | 0.01 to 0.1
COc1ccccc1NC(=O)c1nc(-c2cccs2)cnc1N [Compound I-35, 3-amino-N-(2-methoxyphenyl)-6-(thiophen-2-yl)pyrazine-2-carboxamide] | 0.01 to 0.1
COc1ccccc1NC(=O)c1nc(-c2ccoc2)cnc1N [Compound I-37, 3-amino-6-(furan-3-yl)-N-(2-methoxyphenyl)pyrazine-2-carboxamide] | 0.01 to 0.1
COc1cc(-c2cnc(N)c(C(=O)Nc3ccccc3)n2)ccn1 [Compound I-38, 3-amino-6-(2-methoxypyridin-4-yl)-N-phenylpyrazine-2-carboxamide] | 0.01 to 0.1
Nc1ncc(-c2ccc3[nH]ncc3c2)nc1C(=O)Nc1ccccc1 [Compound I-39, 3-amino-6-(1H-indazol-5-yl)-N-phenylpyrazine-2-carboxamide] | 0.01 to 0.1

Results, then the compound that gave them:

Ki [µM] | SMILES
0.01 to 0.1 | CC(C)S(=O)(=O)c1ccc(-c2cnc(N)c(-c3nnc(-c4ccc(C(N)C(F)(F)F)cc4)o3)n2)cc1 (stereo in doubt) [IA-325, 3-[5-[4-[(1S)-1-amino-2,2,2-trifluoro-ethyl]phenyl]-1,3,4-oxadiazol-2-yl]-5-(4-isopropylsulfonylphenyl)pyrazin-2-amine]
≤ 0.01 | N#Cc1cnccc1-c1cnc(N)c(C(=O)Nc2ccccc2)n1 [Compound I-2, 3-amino-6-(3-cyanopyridin-4-yl)-N-phenylpyrazine-2-carboxamide]
0.01 to 0.1 | Nc1ncc(-c2ccc(C(=O)O)cc2)nc1C(=O)Nc1ccccc1 [Compound I-7, 4-(5-amino-6-(phenylcarbamoyl)pyrazin-2-yl)benzoic acid]
0.1 to 5 | N#Cc1cccc(-c2cnc(N)c(C(=O)Nc3ccccc3)n2)c1 [Compound I-10, 3-amino-6-(3-cyanophenyl)-N-phenylpyrazine-2-carboxamide]
0.1 to 5 | Cc1ccccc1-c1cnc(N)c(C(=O)Nc2ccccc2)n1 [Compound I-11, 3-amino-N-phenyl-6-o-tolylpyrazine-2-carboxamide]
0.1 to 5 | Nc1ncc(-c2cccc(N3CCOCC3)c2)nc1C(=O)Nc1ccccc1 [Compound I-12, 3-amino-6-(3-morpholinophenyl)-N-phenylpyrazine-2-carboxamide]
0.1 to 5 | Nc1ncc(-c2ccccc2F)nc1C(=O)Nc1ccccc1 [Compound I-14, 3-amino-6-(2-fluorophenyl)-N-phenylpyrazine-2-carboxamide]
0.1 to 5 | Nc1ncc(-c2ccccc2)nc1C(=O)Nc1ccccc1 [Compound I-15, 3-amino-N,6-diphenylpyrazine-2-carboxamide]
0.1 to 5 | CC(=O)c1ccc(-c2cnc(N)c(C(=O)Nc3ccccc3)n2)cc1 [Compound I-17, 6-(4-acetylphenyl)-3-amino-N-phenylpyrazine-2-carboxamide]
0.1 to 5 | NC(=O)c1cccc(-c2cnc(N)c(C(=O)Nc3ccccc3)n2)c1 [Compound I-18, 3-amino-6-(3-carbamoylphenyl)-N-phenylpyrazine-2-carboxamide]
0.01 to 0.1 | Nc1ncc(-c2ccccc2CO)nc1C(=O)Nc1ccccc1 [Compound I-19, 3-amino-6-(2-(hydroxymethyl)phenyl)-N-phenylpyrazine-2-carboxamide]
0.01 to 0.1 | Nc1ncc(-c2cccc(C(=O)N3CCOCC3)c2)nc1C(=O)Nc1ccccc1 [Compound I-20, 3-amino-6-(3-(morpholine-4-carbonyl)phenyl)-N-phenylpyrazine-2-carboxamide]
0.01 to 0.1 | CC(=O)c1cccc(-c2cnc(N)c(C(=O)Nc3ccccc3)n2)c1 [Compound I-22, 6-(3-acetylphenyl)-3-amino-N-phenylpyrazine-2-carboxamide]
0.01 to 0.1 | CN(C)C(=O)c1ccc(-c2cnc(N)c(C(=O)Nc3ccccc3)n2)cc1 [Compound I-24, 3-amino-6-(4-(dimethylcarbamoyl)phenyl)-N-phenylpyrazine-2-carboxamide]
0.01 to 0.1 | CS(=O)(=O)Nc1cccc(-c2cnc(N)c(C(=O)Nc3ccccc3)n2)c1 [Compound I-25, 3-amino-6-(3-(methylsulfonamido)phenyl)-N-phenylpyrazine-2-carboxamide]
0.1 to 5 | Nc1ncc(-c2cccc(C(=O)N3CCOCC3)c2)nc1C(=O)Nc1ccc(N2CCCC2)cc1 [Compound I-26, 3-amino-6-(3-(morpholine-4-carbonyl)phenyl)-N-(4-(pyrrolidin-1-yl)phenyl)pyrazine-2-carboxamide]
0.01 to 0.1 | COc1ccccc1NC(=O)c1nc(-c2cccc(C(N)=O)c2)cnc1N [Compound I-27, 3-amino-6-(3-carbamoylphenyl)-N-(2-methoxyphenyl)pyrazine-2-carboxamide]
≤ 0.01 | COc1ccccc1NC(=O)c1nc(-c2ccc(C(=O)N(C)C)cc2)cnc1N [Compound I-28, 3-amino-6-(4-(dimethylcarbamoyl)phenyl)-N-(2-methoxyphenyl) pyrazine-2-carboxamide]
0.01 to 0.1 | Nc1ncc(-c2ccn[nH]2)nc1C(=O)Nc1ccccc1 [Compound I-31, 3-amino-N-phenyl-6-(1H-pyrazol-5-yl)pyrazine-2-carboxamide]
0.1 to 5 | Nc1ncc(-c2ccncc2)nc1C(=O)Nc1ccccc1 [Compound I-33, 3-amino-N-phenyl-6-(pyridin-4-yl)pyrazine-2-carboxamide]
0.01 to 0.1 | Nc1ncc(-c2ccc(N3CCOCC3)nc2)nc1C(=O)Nc1ccccc1 [Compound I-34, 3-amino-6-(6-morpholinopyridin-3-yl)-N-phenylpyrazine-2-carboxamide]
0.01 to 0.1 | COc1ccccc1NC(=O)c1nc(-c2ccc3[nH]ncc3c2)cnc1N [Compound I-36, 3-amino-6-(1H-indazol-5-yl)-N-(2-methoxyphenyl)pyrazine-2-carboxamide]
0.1 to 5 | Nc1ncc(-c2cncnc2)nc1C(=O)Nc1ccccc1 [Compound I-40, 3-amino-N-phenyl-6-(pyrimidin-5-yl)pyrazine-2-carboxamide]
0.1 to 5 | Nc1ncc(-c2ccco2)nc1C(=O)Nc1ccccc1 [Compound I-41, 3-amino-6-(furan-2-yl)-N-phenylpyrazine-2-carboxamide]
0.01 to 0.1 | Nc1ncc(-c2ccc(C(=O)N3CCCNCC3)cc2)nc1C(=O)Nc1ccccc1 [Compound I-43, 6-(4-(1,4-diazepane-1-carbonyl)phenyl)-3-amino-N-phenylpyrazine-2-carboxamide]
0.01 to 0.1 | COC1CN(C(=O)c2ccc(-c3cnc(N)c(C(=O)Nc4ccccc4)n3)cc2)C1 [Compound I-44, 3-amino-6-(4-(3-methoxyazetidine-1-carbonyl)phenyl)-N-phenylpyrazine-2-carboxamide]
